Results taken from article PMC6432629 (The Prostate, 2016).
Like-named read-outs stand apart in the source and are kept apart here. Values belong to the compound of their own block, whether it stands above or below them. Numbered stars: 1 amine (or outer) side, 2 acyl side, 3 side chain; on linkers, the order of the positions; unused ones are H or OH. Square brackets hold non-standard residues; d marks the D form. Peptide text beside a SMILES is read from it. * marks the point of attachment. Emetine(N2') = CC[C@H]1CN2CCc3cc(OC)c(OC)cc3[C@@H]2C[C@@H]1C[C@@H]1c2cc(OC)c(OC)cc2CCN1*; PABC = O=C(OCc1ccc(N[*:1])cc1)[*:2]

Assays:
[1] = tested on: FAP/DPPIV activity in 10% FBS; assay: Inhibition of hydrolysis of 10 to emetine in 10% FBS by FAP inhibitor; assay type: biochemical, bovine; details: Ac-Gly-boroPro 200 μM added to 10% FBS containing media
FAP [2] = target: T1, FAP (Homo sapiens, UniProt Q12884); assay: FAP-mediated hydrolysis of prodrugs ex vivo; assay type: in vitro ADME; details: 37°C; for release of emetine on incubation with FAP (in words): FAP in FAP buffer / FAP containing media, LC-MS
T1 sequence (Q12884 27-760 limits assumed): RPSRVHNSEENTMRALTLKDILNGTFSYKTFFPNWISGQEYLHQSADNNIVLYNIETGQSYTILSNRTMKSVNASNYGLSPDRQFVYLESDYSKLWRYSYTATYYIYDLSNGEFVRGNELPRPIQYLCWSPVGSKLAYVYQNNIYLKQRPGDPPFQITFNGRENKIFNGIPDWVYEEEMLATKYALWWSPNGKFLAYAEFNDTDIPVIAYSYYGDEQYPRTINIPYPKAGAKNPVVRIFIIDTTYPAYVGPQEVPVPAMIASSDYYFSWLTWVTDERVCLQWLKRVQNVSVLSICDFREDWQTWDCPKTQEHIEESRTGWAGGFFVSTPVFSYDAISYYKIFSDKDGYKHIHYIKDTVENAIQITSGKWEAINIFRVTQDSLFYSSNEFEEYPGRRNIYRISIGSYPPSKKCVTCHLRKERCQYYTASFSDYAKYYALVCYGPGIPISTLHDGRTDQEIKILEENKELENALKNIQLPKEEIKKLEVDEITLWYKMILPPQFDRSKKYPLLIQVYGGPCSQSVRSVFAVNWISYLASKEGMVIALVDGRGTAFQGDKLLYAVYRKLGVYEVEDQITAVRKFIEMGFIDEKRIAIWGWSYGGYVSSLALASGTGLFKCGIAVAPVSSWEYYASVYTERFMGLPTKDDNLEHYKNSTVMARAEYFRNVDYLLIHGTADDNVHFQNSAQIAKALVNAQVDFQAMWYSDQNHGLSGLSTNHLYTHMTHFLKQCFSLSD

PC3 = assay: MTT cell proliferation; details: for cytotoxicity to PC3 (in words): exposure time not given; for IC50 fold higher than that of emetine, PC3: in FAP-containing FBS
LNCaP = assay: MTT cell proliferation; details: for cytotoxicity to LNCaP (in words): exposure time not given
[3] = target: DPPIV (human recombinant CD26) (Homo sapiens, UniProt P27487); assay: DPPIV-mediated hydrolysis of prodrugs ex vivo; assay type: in vitro ADME
Sequence of DPPIV (human recombinant CD26) (P27487 whole entry): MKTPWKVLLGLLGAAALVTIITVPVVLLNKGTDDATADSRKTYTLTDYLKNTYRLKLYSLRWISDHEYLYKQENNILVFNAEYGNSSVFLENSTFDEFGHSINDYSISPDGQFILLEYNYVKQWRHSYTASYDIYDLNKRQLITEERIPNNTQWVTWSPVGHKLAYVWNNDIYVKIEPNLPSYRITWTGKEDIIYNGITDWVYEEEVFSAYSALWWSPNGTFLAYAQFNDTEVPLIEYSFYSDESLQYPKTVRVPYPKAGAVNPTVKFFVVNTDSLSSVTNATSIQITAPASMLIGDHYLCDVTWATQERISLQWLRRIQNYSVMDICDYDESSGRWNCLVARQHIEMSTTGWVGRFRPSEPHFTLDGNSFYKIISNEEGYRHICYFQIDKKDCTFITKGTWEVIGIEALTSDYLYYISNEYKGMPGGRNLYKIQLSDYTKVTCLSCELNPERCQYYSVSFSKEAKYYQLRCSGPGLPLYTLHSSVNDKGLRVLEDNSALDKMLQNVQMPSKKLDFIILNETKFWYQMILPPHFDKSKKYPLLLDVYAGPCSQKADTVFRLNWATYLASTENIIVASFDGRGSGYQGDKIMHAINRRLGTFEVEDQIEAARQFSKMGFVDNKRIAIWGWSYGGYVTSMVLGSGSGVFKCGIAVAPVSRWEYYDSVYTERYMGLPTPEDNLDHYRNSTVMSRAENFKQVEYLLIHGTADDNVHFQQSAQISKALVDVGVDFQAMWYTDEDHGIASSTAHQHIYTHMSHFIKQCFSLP

[4] = Hydrolysis of prodrugs in media with 10% FBS; assay type: in vitro ADME, bovine; details: for % emetine released, 10% FBS: RPMI media with 10% FBS, 500 μM compound, 1% DMSO, 24 hr, HPLC and MS
MCF-7 = assay: MTT cell proliferation; details: for IC50: read-out: IC50 (nM) MCF-7
[5] = Stability in serum free media; assay type: in vitro ADME; details: 37°C, 72 hr incubation
PrEC cells = assay: Cytotoxicity in normal prostatic epithelial cells in serum free media
[6] = tested on: NCI 60 cancer cell screen; details: read-out: GI50 in NCI 60 cancer cell screen; no reference given; cited from earlier work
FAP and DPPIV = assay: mixture of purified FAP and DPPIV; details: 37°C, up to 24 hr
FAP [7] = assay: FAP buffer; details: 37°C, up to 24 hr
DPPIV = assay: FAP buffer; details: Human, 37°C, up to 48 hr
[8] = very high concentration, incubation up to 48 hr at 37°C, LC-MS
[9] = read-out: IC50 (nM) PC3, Table II, 3-day exposure, media containing 10% FBS, MTT
[10] = read-out: IC50 (nM) LNCaP, Table II, 3-day exposure, media containing 10% FBS, MTT
[11] = Table II, 3-day exposure, media containing 10% FBS, MTT
[12] = 3-day exposure, media with 10% FBS

Compound: CC(=O)NCC(=O)N1CCC[C@@H]1B(O)O [AcGBP, Ac-Gly-boroPro]
inhibition of release of emetine from 10 in 10% FBS, 2 hr ([1]; 2 hr): completely inhibited
decrease of release of emetine from 10 in 10% FBS, 24 hr ([1]; 24 hr): approximately 45%

Compound: CC[C@H]1CN2CCc3cc(OC)c(OC)cc3[C@@H]2C[C@@H]1C[C@@H]1c2cc(OC)c(OC)cc2CCN1C(=O)[C@@H]1CCCN1C(=O)CNC(=O)[C@H](C)NC(=O)[C@@H]1CCCN1C(=O)CNC(=O)[C@H](CO)NC(=O)[C@H](C)NC(C)=O [Compound 1] (Ac-ASGPAGP-{Emetine(N2')})
release of emetine on incubation with FAP (in words) (FAP [2]; 24 hr): did not release detectable amounts of emetine
cytotoxicity to PC3 (in words) (PC3; media with 10% FBS): not cytotoxic
cytotoxicity to LNCaP (in words) (LNCaP; media with 10% FBS): not cytotoxic

Compound: CC[C@H]1CN2CCc3cc(OC)c(OC)cc3[C@@H]2C[C@@H]1C[C@@H]1c2cc(OC)c(OC)cc2CCN1C(=O)OCc1ccc(NC(=O)[C@@H]2CCCN2C(=O)CNC(=O)[C@H](C)NC(=O)[C@@H]2CCCN2C(=O)CNC(=O)[C@H](CO)NC(=O)[C@H](C)NC(C)=O)cc1 [Compound 2] (Ac-ASGPAGP[PABC]-{Emetine(N2')})
release of emetine on incubation with FAP (in words) (FAP [2]; 24 hr): not cleaved by FAP containing media to release emetine
cytotoxicity to PC3 (in words) (PC3; media with 10% FBS): not cytotoxic
cytotoxicity to LNCaP (in words) (LNCaP; media with 10% FBS): not cytotoxic

Compound: CC[C@H]1CN2CCc3cc(OC)c(OC)cc3[C@@H]2C[C@@H]1C[C@@H]1c2cc(OC)c(OC)cc2CCN1C(=O)[C@H](C)NC(=O)[C@@H]1CCCN1C(=O)CNC(=O)[C@H](C)NC(=O)[C@@H]1CCCN1C(=O)CNC(=O)[C@H](CO)NC(=O)[C@H](C)NC(C)=O [Compound 3] (Ac-ASGPAGPA-{Emetine(N2')})
% cleavage to Ala-Gly-Pro-Ala-Emetine (FAP [2]; 24 hr incubation with FAP): 100%
release of emetine on incubation with FAP (in words) (FAP [2]; 24 hr): no further conversion to free emetine
IC50 fold higher than that of emetine, PC3 (PC3): more than 150 fold

Compound: CC[C@H]1CN2CCc3cc(OC)c(OC)cc3[C@@H]2C[C@@H]1C[C@@H]1c2cc(OC)c(OC)cc2CCN1C(=O)OCc1ccc(NC(=O)[C@H](C)NC(=O)[C@@H]2CCCN2C(=O)CNC(=O)[C@H](C)NC(=O)[C@@H]2CCCN2C(=O)CNC(=O)[C@H](CO)NC(=O)[C@H](C)NC(C)=O)cc1 [Compound 4] (Ac-ASGPAGPA[PABC]-{Emetine(N2')})
% Ala-Gly-Pro-Ala-PABC-Emetine (minor cleavage product) (FAP [2]; 24 hr incubation with FAP): 15%
% Ala-PABC-Emetine (major cleavage product) (FAP [2]; 24 hr incubation with FAP): 85%
release of emetine on incubation with FAP (in words) (FAP [2]; 24 hr): no further conversion to free emetine
IC50 fold higher than that of emetine, PC3 (PC3): more than 150 fold

Compound: CC[C@H]1CN2CCc3cc(OC)c(OC)cc3[C@@H]2C[C@@H]1C[C@@H]1c2cc(OC)c(OC)cc2CCN1C(=O)[C@@H]1CCCN1C(=O)[C@H](C)N [Compound 9]
conversion to emetine by purified DPPIV (in words) [3, 8]: not converted to emetine
% emetine released, 10% FBS ([4]; 37°C): 0%
conversion to emetine in 10% FBS (in words) [4, 8]: not converted to emetine
cytotoxicity to PC3 (in words) (PC3; media with 10% FBS): inactive compared to emetine
IC50 (PC3; [9]): > 10000 nM
cytotoxicity to LNCaP (in words) (LNCaP; media with 10% FBS): inactive compared to emetine
IC50 (LNCaP; [10]): 9520 nM
cytotoxicity to MCF-7 (in words) (MCF-7; media with 10% FBS, exposure time not given): inactive compared to emetine
IC50 (MCF-7; [11]): > 10000 nM

Compound: CC[C@H]1CN2CCc3cc(OC)c(OC)cc3[C@@H]2C[C@@H]1C[C@@H]1c2cc(OC)c(OC)cc2CCN1C(=O)OCc1ccc(NC(=O)[C@@H]2CCCN2C(=O)[C@H](C)N)cc1 [Compound 10, Ala-Pro-PABC-Emetine]
% conversion to emetine by FAP, 24 hr (FAP [2]; purified recombinant FAP 300 nM, 24 hr): 36%
% conversion to emetine by purified DPPIV, 2 hr ([3]; 10 at 500 μM (Fig. 3 legend: 200 μM), DPPIV 30 nM, 37°C, 2 hr): 88%
% conversion to emetine in 10% FBS, 2 hr ([4]; 10% FBS media, 37°C, 2 hr): 10%
% emetine released, 10% FBS ([4]; 37°C): 78%
stability in serum free media [5]: completely stable
cytotoxicity / IC50 compared with emetine, PC3 (in words) (PC3; [12]): cytotoxicity comparable to that of emetine
IC50 (PC3; [9]): 37.2 ± 1.6 nM
cytotoxicity / IC50 compared with emetine, LNCaP (in words) (LNCaP; [12]): cytotoxicity comparable to that of emetine
IC50 (LNCaP; [10]): 38.2 ± 1 nM
cytotoxicity / IC50 compared with emetine, MCF-7 (in words) (MCF-7; [12]): cytotoxicity comparable to that of emetine
IC50 (MCF-7; [11]): 38.4 ± 1.2 nM
cytotoxicity to PrEC (in words) (PrEC cells; 100 nM, 1-3 days exposure, serum free media lacking FAP and DPPIV): no observable cytotoxicity

Compound: CC[C@H]1CN2CCc3cc(OC)c(OC)cc3[C@@H]2C[C@@H]1C[C@H]1NCCc2cc(OC)c(OC)cc21 [Emetine, emetine]
GI50 [6]: 27 nM
IC50 (PC3; Homo sapiens, PC-3, 120 h, read-out: PC3 [IC50 (nM)]): 29.4 ± 3.2 nM
IC50 (LNCaP; Homo sapiens, LNCaP, 120 h, read-out: LNCaP [IC50 (nM)]): 31.6 ± 2.4 nM
IC50 (MCF-7; Homo sapiens, MCF7, 72 h): 35.8 ± 1.6 nM
percentage of viable cells relative to control, day 1 (PrEC cells; 100 nM, PrEC in serum free media lacking FAP and DPPIV, day 1): 80%
percentage of viable cells relative to control, day 2 (PrEC cells; 100 nM, PrEC in serum free media lacking FAP and DPPIV, day 2): 50%
percentage of viable cells relative to control, day 3 (PrEC cells; 100 nM, PrEC in serum free media lacking FAP and DPPIV, day 3): 10%
cytotoxicity to PrEC at 100 nM and 1,000 nM (in words) (PrEC cells; 3-day exposure, keratinocyte serum free media, no FAP or DPPIV): highly cytotoxic
IC50 (PrEC cells; Homo sapiens, PrEC, 72 h, read-out: calculated IC50 in the PrEC cell lines): 35.7 nM

fragment found (FAP and DPPIV): emetine, 2 hr
fragment found (FAP [7]): emetine
Compound: Ac-Ala-Ser-Gly-Pro-Ala-Gly-Pro-Ala-Pro-PABC-Emetine

fragment found (FAP [7]): emetine
fragment found (DPPIV): emetine, 2 hr
Compound: Ala-Pro-PABC-Emetine
